# According to patent publication US20240287054A1, “COMPOUNDS THAT BIND NON-CANONICAL G-QUADRUPLEX STRUCTURES AND METHODS OF MAKING AND USING THE SAME” (The U.S.A., as Represented by the Secretary, Department of …, priority 2021, published 2024):
# Columns and labels:
# [1] = Solubility / aggregation observations in binding buffers; format: physicochemical; conditions: assay buffers, SPR sensorgrams
# Description: A systematic binding assay between 14 analogs and MYCN G4 was performed by SPR and 2-AP (A11) fluorescence titration (FIGS. 26A-26N, 27A-27N). […] For 2-AP fluorescence titration assay (using an A11-substituted construct) observed KD values aligned well with SPR experiments, although the values were slightly lower overall. […] Taking all the SAR data into consideration, MY-8 was elected for cell-based assays.
# [2] = tested on: MYCN G4 DNA (hairpin minor groove); assay: Fluorescence displacement assay with Hoechst 33258; format: binding, human; conditions: competitor added at 5 μM or 50 μM during DNA titration
# Description: Fluorescence displacement assay. Fluorescence displacement assays were carried out by using two classical minor groove binders (Hoechst 33258 and netropsin). Hoechst 33258, as a fluorophore, was prepared at 5 μM concentration in the buffer (10 mM Tris, pH7.0, 100 mM KCl), and then titrated with different concentrations of unlabeled MYCN G4 oligonucleotides. For displacement, either compound MY-1 or netropsin was added into the solution resulting in a final concentration of 5 μM or 50 μM. Fluorescence signals were obtained with an excitation wavelength of 352 nm and an emission wavelength of 500 nm.
# [3] = tested on: 12 different G4 oligos as well as non-G4 oligos (dsDNA and ssDNA); assay: Small-scale DNA G4 microarray binding selectivity; conditions: fluorescent compound incubated 1 h; B33 at 2.5 μM
# Description: In this example, a small-scale DNA G4 microarray containing 12 different G4 oligos as well as non-G4 oligos (dsDNA and ssDNA) was fabricated and tested (Table 4). To start with, a SA-coated glass surface was prepared. An amino-functionalized glass slide was firstly modified with a solution of N, N′-disuccinimidyl carbonate (DSC, 1.0 M) and N, N-diisopropylethylamine (DIPEA, 1.0 M) in DMF overnight at room temperature. After being washed successively with EtOH, Milli-Q water (5 min each) and dried with N2 gas, the slide was incubated with 1 mg/mL of SA solution for 12 h (overnight) in a 4° C. fridge, followed by blocking the surface with EA buffer for 30 minutes. Then, the slide was rinsed with PBS buffer and Milli-Q water, and dried b centrifugation (1,700 g, 2 min).
# In parallel, biotin-labeled DNA/RNA oligos were prepared in annealing buffer resulting in 5 μM stock solutions, followed by annealing (according to above methods). Then all the oligo solutions were transferred into a 384-well plate. Next, the microarray printing was conducted by a robotic arrayer (Nanoprint, Arrayit, USA) with a humidity of 60%. After the microarray was fabricated, the slide was placed in a slide box with a piece of wet Kimwipe tissue and incubated at 4° C. for 2 h.
# To incubate with the fluorescent compounds (compound B33, thiazole orange (“TO”), and amsacrine), the slide was thoroughly rinsed with PBST, PBS, and water to remove the unbounded oligos. Then, the slide was dried by centrifugation (1,700 g, 2 min) and quickly assembled with microarray gaskets (Agilent, USA), followed by loading the compound solutions. After 1 h incubation, the slide was washed and dried with the above-mentioned method. Finally, the microarray slide was imaged by a fluorescence scanner (Mapix) using green channel and the fluorescence intensities were quantified.
# [4] = tested on: ~19,000 different G4 sequences, G4 and non-G4 controls; assay: High-density DNA oligo microarray (~19,000 G4 sequences) selectivity profiling; format: binding; conditions: 500 nM compound
# Excerpt: To further characterize the binding selectivity of compound B33, high-density and large-scale DNA microarrays that contained ˜19,000 different G4 sequences were fabricated and used. In this microarray, 340 reported G4s (G-rich sequences) as well as 280 non-G4s (C-rich sequences) were designed as positive and negative controls. Additionally, over 17,000 canonical G4 oligos with short loops (1˜7 nt) were also designed and synthesized by varying the loop sequences to meet the diversity of G4 structure. After folding the surface-grafted DNA oligos in high concentration of KCl buffer, TO and compound B33 solutions (500 nM) were incubated with the microarray, respectively. Then the slides were thoroughly washed, dried, and imaged by a fluorescent scanner using green channel. […] By quantifying the fluorescence intensity of each spot, the bindings of TO and compound B33 were further investigated. The kernel density estimate (KDE) plot and violin plot represented the distribution of the binding signals throughout the whole microarray. […] Compound B33 spectrum spanned a much wider range than that of TO. In the violin plot (FIG. 37C), the mean SNR value of TO group was 12, much higher than that of the compound B33 group. […] Furthermore, the selectivity of the two compounds were quantitatively profiled by using Gini coefficient. Gini coefficient, initially used as an economic concept, has been applied in profiling the selectivity/promiscuity of kinase inhibitors as well as RNA binders. A higher Gini value represents a better selectivity of a compound (Gini coefficient>0.75 is considered an excellent selectivity). The Gini coefficient based on the SNRs in the microarray.
structure (smiles),measurement,setting,value
COc1ccc(-c2noc(-c3ccc(NCCC4=CCCCC4)nn3)n2)cc1 [MY-4],solubility / aggregation,[1],had solubility in suitable buffers
COc1ccc(-c2noc(-c3ccc(NCCc4ccccc4)nn3)n2)cc1 [MY-9],solubility / aggregation,[1],had solubility in suitable buffers
"Cn1cc(NC(=O)c2cc(NC(=O)CN=C(N)N)cn2C)cc1C(=O)NCCC(=N)N [Netropsin, reference compound]",displacement of Hoechst 33258 (decrease in fluorescence intensity),[2],significant displacement
CN1C(=Cc2cc[n+](C)c3ccccc23)Sc2ccccc21 [TO],binding pattern in G4 microarray,[3],binding to most of the oligos except for dsDNA/ssDNA
same,binding to the 620 G4 and non-G4 controls,[4]; 340 G4s and 280 non-G4s,binding to both G4s and non-G4s
same,Gini coefficient,[4]; based on SNRs in the microarray,0.236
same,mean SNR value,[4]; whole microarray,12
